According to patent publication US20180360801A1, “NEUROPROTECTIVE COMPOSITIONS AND THEIR USE” (priority 2017, published 2018):

Assay: Blood glucose by glucometer after 4 weeks of treatment
Assay type: in vivo
Details: rats, streptozotocin 55 mg/kg ip, n=12, p<0.05
Description: In this study, we used streptozotocin (55 mg/kg) to induce hyperglycemia. We measured the levels of glucose using standardized glucometer after 4 weeks of treatment. Based on the literature, the current animal model represents severe hyperglycemia.

CN(N=O)C(=O)N[C@H]1C(O)O[C@H](CO)[C@@H](O)[C@@H]1O (mixture of isomers) [Streptozotocin, streptozotocin]
increase of levels of glucose as compared to the controls: 445.5%
